Data from patent publication US7973219B2, “Method for producing transgenic plants resistant to weed control compounds which disrupt the porphyrin pathways of plants” (Sumitomo Chemical Company, Limited, priority 1998, dated 2011).

Tested on: E. coli BT3/pACYCSP+pTVCSF strain
Assay: Growth of E. coli BT3/pACYCSP+pTVCSF (variant cucumber ferrochelatase) with herbicidal compound
Type: cell-based, Escherichia coli
Settings: 18 hours culture, Table 13
Excerpt: According to the description of Gibson, L. C. D. et al., Proc. Natl. Acad. Sci. USA, 92; p 1941 (1995), the DNA fragment containing bchH gene prepared in Example 1 was digested with the restriction enzymes NdeI and BglII. The resultant DNA fragment was inserted between NdeI restriction site and BamHI restriction site of expression vector pET11a (manufactured by Stratagene) to obtain plasmid pETBCH (FIG. 1). This plasmid pETBCH was introduced into E. coli BL21(DE3) strain competent cells (manufactured by Stratagene) according to the manual attached to the competent cells to obtain E. coli BL21(DE3)/pETBCH strain. The strain was inoculated into 1.5 ml LB liquid culture medium (1% tryptone, 0.5% yeast extract, 0.5% NaCl) containing 100 μg/ml ampicillin in a tube (14×10 mm), and the tube was covered with aluminum foil (hereinafter referred to as dark conditions), cultured with shaking at 37° C. under light of fluorescent lamp (about 8000 lux). When the absorbance at 600 nm of the liquid culture medium became about 0.6, isopropyl β-D-thiogalactopyranoside (IPTG) was added to the liquid culture medium so that the final concentration was 0.4 mM, and the culture was continued for about additional 20 hours. […] In contrast to this, when E. coli BL21(DE3)/pETBCH strain was cultured according to the same manner (with IPTG) except that the tube was not covered with aluminum foil (hereinafter referred to as light conditions), E. coli grew and turned red as above.
PCR was carried out by using cucumber ferrochelatase cDNA clone isolated by the method described in Miyamoto, K. et al. Plant Physiol., 105; p 769 (1994) as a template, an oligonucleotide composed of the nucleotide sequence of SEQ ID NO: 21 and an oligonucleotide composed of the nucleotide sequence of SEQ ID NO: 22 as primers to amplify the DNA fragment encoding cucumber ferrochelatase whose signal sequence had been deleted (hereinafter referred to as the variant cucumber ferrochelatase). […]
These E. coli strains were inoculated into YPT medium containing 10 or 1 ppm of the PPO inhibitory-type herbicidal compound represented by Structure 8, 100 μg/ml ampicillin, 15 μg/ml chloramphenicol, 10 μg/ml kanamycin, 10 μg/ml hemin and 50 μg/ml aminolevulinic acid, cultured under dark conditions or light conditions according to the same manner as in Example 2. Then, 18 hours after initiation of culture, the absorbance of liquid culture medium was measured at 600 nm. By taking the absorbance of the medium without the herbicidal compound as 1, the relative value of the absorbance of the medium containing the herbicidal compound was calculated.

## C#CCOc1cc(N2C(=O)C3=C(CCCC3)C2=O)c(F)cc1Cl [Structure 8]
In the dark, 1 ppm
  Relative absorbance: 0.92
In the dark, 10 ppm
  Relative absorbance: 0.89
In the light, 1 ppm
  Relative absorbance: 0.78
In the light, 10 ppm
  Relative absorbance: 0.73
